In patent US20220409526A1 (Retina Foundation Of The Southwest, priority 2019, published 2022):
“Also recorded” adds a separate entry of the source.

Legend:
ARPE-19 cells [1] = assay: in vitro; assay type: cell-based, human; details: then 500 μM HQ for 16 hours
Method: ARPE-19 cells were grown in DMEM:F-12 supplemented with 10% fetal bovine serum (FBS). For all experiments these cells were split and grown in 6-well plates using MEM-Nic supplemented with 1% FBS according to a previously published procedure.^33 Cells used for all the experiments were between passages 25-30. For all experiments, the 96 well plates and 8-well slides were coated with 0.039 mg/mL collagen I at 6 μg/cm^2. The cells were seeded at a cell density of 70,000 cells/well and 150,000 cells/well using MEM-Nic media for 96 well plates and 8 well slides, respectively. Once the cells are confluent, media was replaced with MEM a, GlutaMAX™, supplemented with 1% FBS for 24 hours before carrying out assay protocols. Exposure to NAC alkyl-ester prodrugs were carried out in MEM a, GlutaMAX™, supplemented with 1% FBS and treatment with HQ was carried out in serum free DMEM:F-12.
ARPE-19 Cell viability assays were carried out using XTT/PMS reagent mixtures according to standard procedures known in the art (see Celis, J. E.; Carter, N., Cell Biology: A Laboratory Handbook. Elsevier Science: 2005). Corresponding absorbance readings were obtained using a plate reader at 450 and 660 nm.
A dose dependent study was first carried out for ARPE-19 cells using HQ concentrations varying from 100-1000 μM. Cells were then incubated at 37° C., 5% CO2 for 16 hours. HQ doses of less than 400 μM were non-lethal. Using 500 μM HQ for 16 hours gave a cell viability of ˜60%.
To evaluate the ability of the NAC alkyl-ester analogues to provide cellular protection against oxidative stress, cells were treated with 0.05 mM of NAC, NACME, NACEE, NACPE and NACBE for 2, 24 and 48 hours. Treated cells were then exposed to 500 μM HQ for 16 hours. HQ solutions were removed and replaced with DMEM:F-12 supplemented with 1% FBS, and followed by the addition of XTT (2,3-bis-(2-methoxy-4-nitro-5-sulfophenyl)-2H-tetrazolium-5-carboxanilide) and PMS (phenazine methyl sulfate).
To compare the effectiveness of NACBE and NAC in protecting against oxidative damage, another dose dependent study was carried out by varying the pretreatment concentration from 0.001 mM to 1.0 mM. […] Whereas for NAC, to reach the same cell viability, 0.5 mM concentration was needed (10× times that of NACBE).

ARPE-19 cells [2] = assay: ZO-1 staining of cellular junctions; assay type: cell-based, human
Method: ARPE-19 cells were grown on an 8-well slide until confluent. The cells were exposed to 1 mM NAC and NACBE for 24 hours, followed by treatment with 500 μM of HQ for 2 hours. The cells were washed with 3 cycles of PBS, and then fixed with 4% Paraformaldehyde at 4° C. for 30 mins. After fixation the cells were blocked in PBST (0.2% Triton X-100)+1% BSA for 60 mins. Primary antibody (rabbit anti-Zo-1, Invitrogen) was diluted 1/100 in PBST+1% BSA and added overnight at […]. Cells were washed ×3 with PBS and secondary antibody (Donkey anti-Rabbit AF-555, Abcam) was added for 4 hours at RT. Cells were washed ×3 with PBS and mounted with Prolong Diamond Mountant with DAPI (Invitrogen).

ARPE-19 cells [3] = assay: HPLC analysis of cellular uptake and conversion to NAC; assay type: in vitro ADME, human; details: 1 mM for 1 hour in HBSS
Method: ARPE-19 cells were seeded onto a 60 cm^2 dish and was allowed to grow to confluency. The cells were treated with 1 mM NAC and NACBE for 1 hour in HBSS. The drug solution was aspirated and washed twice with HBSS. The cells were scraped with the aid of methanol (˜1 mL) and collected into 2 mL centrifuge tubes. The cell suspension in methanol was sonicated (for cell lysis) in a water bath for 30 minutes and was centrifuged at 14,000 RPM for 15 minutes. The supernatant was transferred to a HPLC vial and methanol was evaporated under a stream of nitrogen.
The sample was resuspended in 50 μL of methanol before injecting into the HPLC system. Samples and standard (20 μL) were injected with an autosampler. Separation was conducted by 0.8 mL/min gradient elution with a water/0.10% formic acid and acetonitrile mobile phase on a 250×4.6-mm ([…]) C18 column (Restek, Pinnacle II) maintained at 25° C. The samples were monitored at 205 nm with a UV detector and analyzed with Agilent Chemstation software.

ARPE-19 cells [4] = assay: GSH assay (Promega GSH/GSSG-Glo); assay type: cell-based, human; details: 1 mM for 24 hours
Method: The production of cellular GSH levels upon exposure to drugs were measured using the GSH assay kit. NACA and GSH-EE were used as controls in this assay. ARPE-19 cells were grown in white 96 well plates. The cells were exposed to 1 mM solutions of NAC, NACME, NACEE, NACPE, NACBE, NACA and glutathione ethyl ester (GSH-EE) for 24 hours. The solutions were removed and washed with PBS once. Afterwards, GSH assay was carried out according to manufacturer recommended protocol (Promega GSH/GSSG-Glo™) and luminescence readings were obtained with a luminometer, which a higher luminescence intensity indicates a higher GSH concentration.

[5] = test system: mitochondrial DNA of ARPE-19 cells; assay: DNA fragmentation assay (long-extension PCR of mitochondrial DNA); assay type: cell-based, human; details: pretreatment for 24 hours (1 mM), then 500 uM HQ for 24 hours
Method: Mitochondrial DNA damage has been linked to pathogenic diseases, including AMD. To determine if pretreatment of RPE cells with NAC alkyl-ester analogues could protect mitochondrial DNA against oxidative damage, a long-extension PCR based assay was used to measure amplification of a large stretch of mitochondrial DNA. The mitochondrial DNA damage assay was performed according to protocols known to those in the art (see Santos, J. H.; Mandavilli, B. S.; Van Houten, B., Measuring Oxidative mtDNA Damage and Repair Using Quantitative PCR. In Mitochondrial DNA: Methods and Protocols, Copeland, W. C., Ed. Humana Press: Totowa, N.J., 2002; pp 159-176). Briefly, ARPE-19 cells were grown to confluency in 6-well plates. The cells were treated with NAC alkyl-ester analogues for 24 hours, washed and then treated with 500 uM HQ for an additional 24 hours. DNA was isolated from the treated cells with a QIAamp DNA mini kit (Qiagen). The DNA samples were diluted to 3 ng/μl for use in PCR reactions. PCR products were quantified using the Quant-iT Picogreen dsDNA Assay kit (Invitrogen). The relative amplification of the large band was normalized to untreated cells. The amplification of the small mitochondrial band was used to normalize the data obtained from the large band to account for mitochondrial DNA copy number.

SMILES: CCCCOC(=O)[C@H](CS)NC(C)=O [NACBE, N-acetylcysteine butyl ester]
- change in cell viability upon exposure to HQ (ARPE-19 cells [1]; 0.05 mM pretreatment for 24 and 48 hours, compared to NAC and the control): comparatively a higher cell viability
- change in cell viability upon exposure to HQ (ARPE-19 cells [1]; 0.05 mM pretreatment for 2 hours): marginal effect
- pretreatment concentration at which 100% cell viability was obtained (ARPE-19 cells [1]; pretreatment 0.001-1.0 mM for 24 hours): 0.05 mM
- ZO-1 staining of cell-cell junctions (ARPE-19 cells [2]; 1 mM for 24 hours, without HQ): proper cell-cell junctions
- ZO-1 staining of cellular junctions after exposure to HQ (ARPE-19 cells [2]; 1 mM pretreatment for 24 hours, then 500 μM HQ for 2 hours): intact
- compound and metabolite detected within the cells by HPLC (ARPE-19 cells [3]): both NACBE (prodrug) and NAC (metabolite) within the cells; also recorded: taken up by the cells more effectively than NAC
- cellular GSH level (luminescence) compared to untreated cells (ARPE-19 cells [4]): produced the highest amounts of GSH
- protection of mitochondrial DNA amplification against HQ [5]: keep the PCR amplification of the mitochondrial DNA intact
